Measured values published in ChEMBL document CHEMBL1201862, “PubChem BioAssay data set” (2004).
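Grown in 96-well plates, cells were treated for 48 hours with each compound at five concentrations. Insufficient inhibition: endpoint recorded as highest concentration tested. GI50 marks 50% less growth.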 The source made the active and inactive calls. Cut-off read from the data, not from the text of the source: active = GI50 up to about 1.1 µM and inactive = higher. Where a SMILES comes first, the peptide text is derived from it.

What was measured:
Test in all cases: NCI-60 cell line screen, 48 h
BT-549 = system: BT-549
DMS-273 = system: DMS-273
DLD-1 = system: DLD-1
XF498 = system: XF498
LXFL 529 = system: LXFL 529
KM-20L2 = system: KM-20L2
RXF 631 = system: RXF 631
M19-MEL = system: M19-MEL
DMS-114 = system: DMS-114

## COc1ccc2c3c1OC1C34CCN(C)C(C2)C4=CC(I)C1(OC)OC (stereo not drawn)
BT-549
  GI50: 21.6 µM (inactive)

## COc1cc(O)c2c(=O)c(OC)c(-c3ccc(OC)c(O)c3)oc2c1 [AYANIN]
BT-549
  GI50: 20.4 µM (inactive)

## CC1(C)OC[C@@H](O)[C@H](C#N)CO1
BT-549
  GI50: > 100 µM (inactive)

## COc1ccc(-c2cc(-c3ccccc3)nc(N)n2)c(O)c1
BT-549
  GI50: 1.7 µM (inactive)

## C=CCOC(=O)CCCCCCCCCCCCCCCOC(=O)C1=C(CCC[C@@H](C)O[Si](C)(C)C(C)(C)C)NC(=O)N2[C@H](CC3(CC/C=C\[C@H](CC)O[Si](C(C)C)(C(C)C)C(C)C)OCCO3)CC[C@H]12
BT-549
  GI50: > 100 µM (inactive)

## NC(=O)c1ncn(CCN2CCN(C(=O)NCCCCCCNC(=O)N3CCN(CCn4cnc(C(N)=O)c4N)CC3)CC2)c1N
DMS-273
  GI50: > 100 µM (inactive)
DLD-1
  GI50: > 100 µM (inactive)
XF498
  GI50: > 100 µM (inactive)
LXFL 529
  GI50: > 100 µM (inactive)
KM-20L2
  GI50: > 100 µM (inactive)
RXF 631
  GI50: > 100 µM (inactive)

## Cc1cc(Cl)nc(NC(=O)CSc2ccc(Cl)cc2)n1
BT-549
  GI50: > 100 µM (inactive)

## O=C1C(=O)N(c2ccc(Cl)c(Cl)c2)C(=O)C(=O)C1c1nc2ccccc2s1
DMS-273
  GI50: > 100 µM (inactive)
M19-MEL
  GI50: > 100 µM (inactive)
DLD-1
  GI50: > 100 µM (inactive)
DMS-114
  GI50: > 100 µM (inactive)
LXFL 529
  GI50: > 100 µM (inactive)
KM-20L2
  GI50: > 100 µM (inactive)

## CCC1=C(C)/C(=C/c2[nH]c(CBr)c(CC)c2C)N=C1CBr
DMS-273
  GI50: > 100 µM (inactive)
M19-MEL
  GI50: 13.7 µM (inactive)
DLD-1
  GI50: 12.4 µM (inactive)
DMS-114
  GI50: 7.21 µM (inactive)
LXFL 529
  GI50: 4.43 µM (inactive)
KM-20L2
  GI50: 11.4 µM (inactive)
RXF 631
  GI50: > 100 µM (inactive)

## CCS(=O)(=O)Nc1ccc(Nc2c3ccccc3nc3ccccc23)c(OC)c1
DMS-273
  GI50: 0.0324 µM (active)
M19-MEL
  GI50: 1.64 µM (inactive)
DLD-1
  GI50: 2.56 µM (inactive)
DMS-114
  GI50: 0.216 µM (active)
XF498
  GI50: 0.0223 µM (active)
KM-20L2
  GI50: 1.43 µM (inactive)

## Fc1cccc2nc(-c3ccccc3)cc(OCc3ccccc3)c12
BT-549
  GI50: > 100 µM (inactive)

## COc1ccc(C(N)=O)c(OC)c1OCc1ccccc1
DMS-273
  GI50: > 100 µM (inactive)
M19-MEL
  GI50: > 100 µM (inactive)
DLD-1
  GI50: > 100 µM (inactive)
DMS-114
  GI50: > 100 µM (inactive)
LXFL 529
  GI50: > 100 µM (inactive)
KM-20L2
  GI50: > 100 µM (inactive)

## O=Cc1cc(O)c(O)c(/C=N/n2c3ccccc3c3ccccc32)c1
BT-549
  GI50: 2.31 µM (inactive)

## Cc1cc(-c2nc3ccccc3s2)ccc1NC(=O)[C@H](C)N
BT-549
  GI50: 15.7 µM (inactive)

## CC1=C(N2CC2)C(=O)C(CO)=C(N2CC2)C1=O
BT-549
  GI50: 0.13 µM (active)

## C(CCc1nnc2c(n1)CCCC2)Cc1nnc2c(n1)CCCC2
BT-549
  GI50: > 100 µM (inactive)

## C=C1C(=O)C2(C)OC2(C)C1C(=O)O (stereo not drawn)
BT-549
  GI50: > 100 µM (inactive)

## O=C([O-])Cc1ccccc1.[Na+] [SODIUM PHENYLACETATE]
BT-549
  GI50: 723 µM (inactive)

## NC1=NC(c2ccc(Cl)cc2)N(c2ccc(S(N)(=O)=O)cc2)C(N)=N1 (stereo not drawn)
BT-549
  GI50: > 100 µM (inactive)

## Nc1nc(NNc2ccc(Cl)c(Cl)c2)cc(=O)[nH]1
BT-549
  GI50: 33.7 µM (inactive)

## O=C(c1ccccc1)c1c2ccccn2c2cccc[n+]12
BT-549
  GI50: > 100 µM (inactive)

## C=C1CCC2C(C)(CO)C(O)CCC2(C)C1CC(O)/C(=C/CO)C(=O)O (stereo not drawn)
DMS-273
  GI50: > 100 µM (inactive)
M19-MEL
  GI50: > 100 µM (inactive)
DLD-1
  GI50: > 100 µM (inactive)
DMS-114
  GI50: > 100 µM (inactive)
LXFL 529
  GI50: > 100 µM (inactive)
KM-20L2
  GI50: > 100 µM (inactive)
RXF 631
  GI50: > 100 µM (inactive)

## O=c1[nH]c(=O)n(COCc2ccccc2)cc1Nc1ccc(Br)cc1
BT-549
  GI50: > 100 µM (inactive)

## [N-]=[N+]=Nc1c([N+](=O)[O-])c(Cl)nc2ccccc12
BT-549
  GI50: 1.74 µM (inactive)

## CCCCCCCCCCCCCCCCCCNc1nc(=O)n(C2CC(O)C(COP(=O)(O)OCC3OC(n4ccc(N)nc4=O)C(O)C3O)O2)cc1F (stereo not drawn)
BT-549
  GI50: 31.1 µM (inactive)

## CC1=C(C(=O)Nc2ccccc2)C(c2ccccc2Cl)C(C(=O)Nc2ccccc2)=C(C)N1
DMS-273
  GI50: 20.8 µM (inactive)
M19-MEL
  GI50: 19.8 µM (inactive)
DLD-1
  GI50: 35.9 µM (inactive)
LXFL 529
  GI50: 17.6 µM (inactive)
KM-20L2
  GI50: 22.2 µM (inactive)
RXF 631
  GI50: 36.1 µM (inactive)

## CCOC(=O)c1cc(Sc2ccc(N)c(C(=O)OCC)c2)ccc1N
BT-549
  GI50: > 100 µM (inactive)

## CN(C)CC1CCC/C1=N/OC(=O)c1ccccc1 (stereo not drawn)
DMS-273
  GI50: > 100 µM (inactive)
M19-MEL
  GI50: > 100 µM (inactive)
DLD-1
  GI50: > 100 µM (inactive)
DMS-114
  GI50: > 100 µM (inactive)
LXFL 529
  GI50: > 100 µM (inactive)
KM-20L2
  GI50: > 100 µM (inactive)
RXF 631
  GI50: > 100 µM (inactive)

## CC1NC(=O)CNC(=O)CNC(=O)C(Cc2ccc(O)cc2)NC(=O)C(C(C)C)NC(=O)C(C)NC1=O (stereo not drawn) (cyclo(GGAAVY); configuration not given here)
DMS-273
  GI50: > 100 µM (inactive)
M19-MEL
  GI50: > 100 µM (inactive)
DLD-1
  GI50: > 100 µM (inactive)
DMS-114
  GI50: > 100 µM (inactive)
XF498
  GI50: > 100 µM (inactive)

## Nc1c(C(=O)c2ccccc2)[nH]c(NCc2ccccc2)c1C(=S)Nc1ccccc1
BT-549
  GI50: > 100 µM (inactive)

## O=C(CC1(O)C(=O)Nc2c(Cl)cccc21)c1ccccc1 (stereo not drawn)
DMS-273
  GI50: > 100 µM (inactive)
DLD-1
  GI50: > 100 µM (inactive)
DMS-114
  GI50: > 100 µM (inactive)
XF498
  GI50: > 100 µM (inactive)
LXFL 529
  GI50: > 100 µM (inactive)
KM-20L2
  GI50: > 100 µM (inactive)
